Measured values reported in PMC9743092, “Membrane-Active Cyclic Amphiphilic Peptides: Broad-Spectrum Antibacterial Activity Alone and in Combination with Antibiotics” (Journal of Medicinal Chemistry, 2022).
Converted amounts (≈) assume the structure as drawn.

Assays:
[1] = system: K. pneumoniae (ATCC BAA 1705)
[2] = system: K. pneumoniae (ATCC BAA-1705); details: 24 h, ≥99.9% kill
[3] = system: Acinetobacter baumannii-calcoaceticus species complex (1188767)
[4] = system: P. aeruginosa (ATCC 27883); details: 24 h, ≥99.9% kill
in vitro = details: human, human plasma
Procedure: For accurate quantification, we employed a mass spectrometer (Q-TOF LC/MS) with a high resolving power. To remove the background interference, the data were processed by using a narrower (±0.1 m/z) extracted ion chromatogram (EIC) window. The test peptide (100 μM) was incubated in human plasma at 37 °C in a water bath. […] Plasma proteins were precipitated by the addition of cold ethanol (200 μL) and incubated for 30 min at −20 °C. […] The samples were dissolved in water and analyzed on a Delta-Pak (Waters) C18 column (100 Å, 5 μm, 3.9 mm × 150 mm) at a flow rate of 0.3 mL/min using a linear gradient of aqueous acetonitrile in the presence of formic acid (FA; 0.1%, v/v) as an ion pair reagent. Peptides were detected by recording the absorbance at 220 nm and quantified by their peak areas of EIC. The percentage digestion of the test peptides was calculated relative to the peak areas at 0 min.

[5] = system: P. aeruginosa (ATCC 27853)
[6] = system: human red blood cells (hRBCs); details: red cells of human, 2 h
E. coli (ATCC 25922) [7] = system: E. coli (ATCC 25922)
[8] = system: K. pneumoniae (ATCC 700603)
[9] = system: Acinetobacter baumannii (NCTC 13304)
[10] = system: Acinetobacter baumannii-calcoaceticus species complex (1189854)
E. coli (ATCC 25922) [11] = details: 24 h, ≥99.9% kill

## N=C(N)NCCC[C@@H]1NC(=O)[C@H](CCCNC(=N)N)NC(=O)[C@H](CCCNC(=N)N)NC(=O)[C@H](Cc2c[nH]c3ccccc23)NC(=O)[C@H](Cc2c[nH]c3ccccc23)NC(=O)[C@H](Cc2c[nH]c3ccccc23)NC(=O)[C@H](Cc2c[nH]c3ccccc23)NC(=O)[C@H](CCCNC(=N)N)NC(=O)[C@H](CCCNC(=N)N)NC1=O [5a, [R5W4]]
[1]
  MIC K. pneumoniae (ATCC BAA 1705): >64 µg/mL
E. coli (ATCC BAA-2452)
  MIC E. coli (ATCC BAA-2452): 16 µg/mL (≈ 10.5 µM)
[2]
  MBC K. pneumoniae (ATCC BAA-1705): 64 µg/mL (≈ 41.9 µM)
[3]
  MIC Acinetobacter baumannii-calcoaceticus species complex (1188767): 32 µg/mL (≈ 21 µM)
P. aeruginosa (1188712)
  MIC P. aeruginosa (1188712): 16 µg/mL (≈ 10.5 µM)
[4]
  MBC P. aeruginosa (ATCC 27883): 32 µg/mL (≈ 21 µM)
In vitro
  remaining at 0.5 h, 100 μM: ~79%
  remaining at 2 h, 100 μM: ~56%
[5]
  MIC P. aeruginosa (ATCC 27853): 32 µg/mL (≈ 21 µM)
K. pneumoniae (1188718)
  MIC K. pneumoniae (1188718): >64 µg/mL
E. coli (1191008)
  MIC E. coli (1191008): 16 µg/mL (≈ 10.5 µM)
S. aureus (ATCC 29213)
  MIC S. aureus (ATCC 29213): 4 µg/mL (≈ 2.62 µM)
[6]
  HC50: 340 µg/mL
E. coli (ATCC 25922) [7]
  MIC E. coli (ATCC 25922): 16 µg/mL (≈ 10.5 µM)
[8]
  MIC K. pneumoniae (ATCC 700603): >64 µg/mL
P. aeruginosa (1191191)
  MIC P. aeruginosa (1191191): 32 µg/mL (≈ 21 µM)
S. aureus (1195201)
  MIC S. aureus (1195201): 4 µg/mL (≈ 2.62 µM)
[9]
  MIC Acinetobacter baumannii (NCTC 13304): 16 µg/mL (≈ 10.5 µM)
[10]
  MIC Acinetobacter baumannii-calcoaceticus species complex (1189854): 16 µg/mL (≈ 10.5 µM)
E. coli (ATCC 25922) [11]
  MBC E. coli (ATCC 25922): 16 µg/mL (≈ 10.5 µM)
S. aureus (1193193)
  MIC S. aureus (1193193): 4 µg/mL (≈ 2.62 µM)
